Like-named read-outs stand apart in the source and are kept apart here.
Columns and labels:
[1] = target: cotton aphid choline acetyltransferase (Aphis gossypii, UniProt A0A9P0JF82); experiment: Inhibition of cotton aphid choline acetyltransferase activity (DTNB colorimetric in vitro assay); assay type: biochemical; conditions: for inhibition at 10 µM: test compound in DMSO at final concentration 10 μM, relative to DMSO control, read-out: Activity of inhibiting choline acetyltransferase activity (inhibition degree (%) at 10 μM addition)
Method: Selection of a compound which modulates a choline acetyltransferase activity was performed in a system for measuring and evaluating the choline acetyltransferase activity, the activity being modulated by adding a test compound to an in vitro reaction system using the cotton aphid choline acetyltransferase prepared in Example 7.
As for a measurement of the cotton aphid choline acetyltransferase activity, after the enzymatic reaction of choline acetyltransferase using acetyl-CoA and choline as substrates, free CoA formed by choline acetyltransferase reaction was measured using 5,5′-dithio-bis(2-nitrobenzoic acid) (DTNB) reagent. DTNB reacts with free thiol groups in solution to produce 5-thio-2-nitrobenzoic acid (TNB). TNB is yellow and has absorption maximum at 412 nm. The produced TNB was measured […] to calculate choline acetyltransferase activity.
For measuring the activity, the activity of the aphid choline acetyltransferase was measured when a test compound dissolved in DMSO was contained to a final concentration of 10 μM. In addition, the activity of the aphid choline acetyltransferase was measured when DMSO was contained in place of a test compound. Then, a ratio (%) of a measured value of the activity of the aphid choline acetyltransferase when a test compound dissolved in DMSO was contained, relative to a measured value of the activity of aphid choline acetyltransferase when DMSO was contained in place of the test compound was calculated, and a value obtained by subtracting the calculated value from 100% was adopted as an inhibition degree (%). The results in each test compound are shown in Table 4 in Example 9 together with results of Example 9.
The activity of aphid choline acetyltransferase was measured when a test compound dissolved in DMSO was contained to a final concentration of each concentration of 100 μM, 30 μM, 10 μM, 3 μM, 1 μM, 0.3 μM, 0.1 μM or 0.03 μM. IC50 (μM) was calculated from the result of each concentration at each test compound using a concentration-dependent test analyzing software XL fit (manufactured by idbs). The results are shown in Table 5 in Example 10 together with results of Example 9.

Aphis gossypii = experiment: Pesticidal activity test (artificial feed rearing of Aphis gossypii); assay type: in vivo; conditions: 50 ppm test compound in artificial feed; surviving Aphis gossypii counted after six days; significant controlling value (e.g. 30% or more) = pesticidal activity
[2] = concentrations 0.03-100 μM, XLfit, recombinant cotton aphid enzyme, read-out: Activity of inhibiting choline acetyltransferase activity (IC50)
[3] = recombinant cotton aphid enzyme

Chain of cotton aphid choline acetyltransferase (A0A9P0JF82 entry or part of it): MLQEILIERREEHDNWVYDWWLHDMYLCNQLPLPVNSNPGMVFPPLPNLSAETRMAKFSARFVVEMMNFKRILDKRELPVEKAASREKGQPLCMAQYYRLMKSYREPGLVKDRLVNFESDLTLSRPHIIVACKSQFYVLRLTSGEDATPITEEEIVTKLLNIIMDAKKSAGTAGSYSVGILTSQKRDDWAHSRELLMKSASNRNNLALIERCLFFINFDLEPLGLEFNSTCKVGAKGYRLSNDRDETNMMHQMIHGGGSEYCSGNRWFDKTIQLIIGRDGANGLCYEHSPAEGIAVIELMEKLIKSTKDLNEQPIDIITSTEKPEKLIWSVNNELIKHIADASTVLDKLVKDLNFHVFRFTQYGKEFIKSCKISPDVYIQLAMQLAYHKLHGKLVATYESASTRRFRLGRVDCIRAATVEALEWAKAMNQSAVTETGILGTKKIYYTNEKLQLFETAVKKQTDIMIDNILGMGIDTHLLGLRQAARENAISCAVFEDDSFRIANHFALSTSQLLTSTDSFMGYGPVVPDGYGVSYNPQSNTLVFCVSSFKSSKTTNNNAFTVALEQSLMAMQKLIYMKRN

Compound	IC50 [1, 2] [µM]	Result of Example 9: Determination result of pesticidal activity (Aphis gossypii)	inhibition at 10 µM [1, 3] [%]	IC50 [1] [µM]
CN(C)CCC(c1ccc(Cl)cc1)c1ccccn1.O=C(O)/C=C\C(=O)O (racemic) [DL-Chlorpheniramine Maleate]	> 100	–	–	–
COc1cc(N)c(Cl)cc1C(=O)NC1CCN(CCCOc2ccc(F)cc2)CC1OC (stereo not drawn) [Cisapride]	> 100	–	–	–
ICC1CSc2nncn21 (stereo not drawn) [DD03493]	23.8	Presence of pesticidal	49	–
O/N=C(\CBr)c1ccccc1 [DD05314]	–	Presence of pesticidal	50	–
CN(C)CCC(=O)c1cccc2ccccc12.Cl [α-NEDA, 2-(α-naphthoyl)ethyl-dimethylammonium chloride]	–	–	–	33.5
C[N+](C)(C)CCC(=O)c1cccc2ccccc12.[I-] [α-NETA, 2-(α-naphthoyl)ethyl-trimethylammonium iodide]	–	–	–	1.5
